In ChEMBL document CHEMBL1201862, “PubChem BioAssay data set” (2004):
Calls of active or inactive are those of the source.

Legend:
[1] = target: DNA dC->dU-editing enzyme APOBEC-3A (Homo sapiens, UniProt P31941); assay: A3A deaminase inhibition for selectivity – biochemical, dose response (AID 504722); format: functional
[2] = target: T1, Alkaline phosphatase, tissue-nonspecific isozyme (Homo sapiens, UniProt P05186); assay: potency against alkaline phosphatase TNAP – biochemical, luminescent, dose response, SAR follow-up (AID 1056)
T1 sequence (P05186 whole entry): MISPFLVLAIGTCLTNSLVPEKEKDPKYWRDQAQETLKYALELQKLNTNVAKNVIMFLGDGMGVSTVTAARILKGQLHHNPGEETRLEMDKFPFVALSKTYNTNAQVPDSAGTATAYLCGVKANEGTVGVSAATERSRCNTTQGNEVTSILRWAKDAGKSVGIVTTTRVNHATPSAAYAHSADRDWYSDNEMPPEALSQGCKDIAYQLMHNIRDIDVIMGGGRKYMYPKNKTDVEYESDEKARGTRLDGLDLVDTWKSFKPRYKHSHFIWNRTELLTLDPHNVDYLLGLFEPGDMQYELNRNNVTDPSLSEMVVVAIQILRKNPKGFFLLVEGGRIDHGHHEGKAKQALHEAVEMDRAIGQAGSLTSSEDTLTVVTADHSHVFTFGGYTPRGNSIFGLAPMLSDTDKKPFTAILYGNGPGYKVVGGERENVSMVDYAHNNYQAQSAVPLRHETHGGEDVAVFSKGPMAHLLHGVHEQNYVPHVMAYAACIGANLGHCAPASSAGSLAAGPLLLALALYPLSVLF

Phosphomannomutase 2 = target: T2, Phosphomannomutase 2 (Homo sapiens, UniProt O15305); assay: Counter screen SAR assay for PMM2 inhibitors via a fluorescence intensity assay. [Related pubchem assays (depositor defined):AID1545, AID1574]
T2 sequence (O15305 whole entry): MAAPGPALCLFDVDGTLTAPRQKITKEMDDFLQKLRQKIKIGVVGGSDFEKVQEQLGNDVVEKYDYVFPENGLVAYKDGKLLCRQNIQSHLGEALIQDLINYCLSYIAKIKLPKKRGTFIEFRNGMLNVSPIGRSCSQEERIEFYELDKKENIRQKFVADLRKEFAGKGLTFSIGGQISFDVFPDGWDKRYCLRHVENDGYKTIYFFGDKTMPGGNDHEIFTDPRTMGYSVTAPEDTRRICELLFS

[3] = target: T3, Rac GTPase-activating protein 1 (Homo sapiens, UniProt Q9H0H5); assay: blockers of MgcRacGAP-driven Rac1 GTP hydrolysis – biochemical, ADP Hunter fluorescence, primary and confirmatory, confirmation (AID 624330); format: functional
T3 sequence (Q9H0H5 whole entry): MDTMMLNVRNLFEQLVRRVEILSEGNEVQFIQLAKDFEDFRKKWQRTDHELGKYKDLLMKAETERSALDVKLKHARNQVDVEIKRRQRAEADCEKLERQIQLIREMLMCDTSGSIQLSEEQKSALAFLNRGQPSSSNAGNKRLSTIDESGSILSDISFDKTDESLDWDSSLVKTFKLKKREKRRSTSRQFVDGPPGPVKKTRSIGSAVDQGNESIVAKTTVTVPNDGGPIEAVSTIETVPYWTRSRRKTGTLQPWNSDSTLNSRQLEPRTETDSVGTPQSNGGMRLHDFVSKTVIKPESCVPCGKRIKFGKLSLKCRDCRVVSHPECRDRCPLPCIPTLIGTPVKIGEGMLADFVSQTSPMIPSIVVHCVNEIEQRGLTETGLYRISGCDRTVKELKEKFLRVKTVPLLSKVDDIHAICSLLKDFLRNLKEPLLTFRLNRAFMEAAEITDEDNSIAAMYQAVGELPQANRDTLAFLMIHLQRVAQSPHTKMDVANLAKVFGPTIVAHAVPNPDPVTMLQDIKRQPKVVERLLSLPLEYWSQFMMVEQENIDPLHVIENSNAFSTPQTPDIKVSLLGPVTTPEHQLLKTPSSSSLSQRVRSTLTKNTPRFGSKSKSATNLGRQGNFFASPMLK

[4] = Counterscreen for IDE inhibitors: Luminescence-based cell-based high throughput dose response assay to identify compounds that are cytotoxic to HEK cells. [Related pubchem assays: 434962 (Primary screen (IDE inhibitors in singlicate)), 449730 (Counterscreen (Cytotoxicity in triplicate)), 435028 (Confirmation (IDE inhibitors in triplicate)) …; format: functional; conditions: HEK293
Insulin-degrading enzyme = target: T4, Insulin-degrading enzyme (Homo sapiens, UniProt P14735); assay: Dose Response: Fluorescence polarization-based cell-based high throughput dose response assay for inhibitors of insulin-degrading enzyme (IDE). [Related pubchem assays: 434962 (Primary screen (IDE inhibitors in singlicate)), 449730 (Counterscreen (Cytotoxicity in triplicate)), 435028 (Confirmation (IDE inhibitors in triplicate)), 434984 (Summary …; format: functional
T4 sequence (P14735 whole entry): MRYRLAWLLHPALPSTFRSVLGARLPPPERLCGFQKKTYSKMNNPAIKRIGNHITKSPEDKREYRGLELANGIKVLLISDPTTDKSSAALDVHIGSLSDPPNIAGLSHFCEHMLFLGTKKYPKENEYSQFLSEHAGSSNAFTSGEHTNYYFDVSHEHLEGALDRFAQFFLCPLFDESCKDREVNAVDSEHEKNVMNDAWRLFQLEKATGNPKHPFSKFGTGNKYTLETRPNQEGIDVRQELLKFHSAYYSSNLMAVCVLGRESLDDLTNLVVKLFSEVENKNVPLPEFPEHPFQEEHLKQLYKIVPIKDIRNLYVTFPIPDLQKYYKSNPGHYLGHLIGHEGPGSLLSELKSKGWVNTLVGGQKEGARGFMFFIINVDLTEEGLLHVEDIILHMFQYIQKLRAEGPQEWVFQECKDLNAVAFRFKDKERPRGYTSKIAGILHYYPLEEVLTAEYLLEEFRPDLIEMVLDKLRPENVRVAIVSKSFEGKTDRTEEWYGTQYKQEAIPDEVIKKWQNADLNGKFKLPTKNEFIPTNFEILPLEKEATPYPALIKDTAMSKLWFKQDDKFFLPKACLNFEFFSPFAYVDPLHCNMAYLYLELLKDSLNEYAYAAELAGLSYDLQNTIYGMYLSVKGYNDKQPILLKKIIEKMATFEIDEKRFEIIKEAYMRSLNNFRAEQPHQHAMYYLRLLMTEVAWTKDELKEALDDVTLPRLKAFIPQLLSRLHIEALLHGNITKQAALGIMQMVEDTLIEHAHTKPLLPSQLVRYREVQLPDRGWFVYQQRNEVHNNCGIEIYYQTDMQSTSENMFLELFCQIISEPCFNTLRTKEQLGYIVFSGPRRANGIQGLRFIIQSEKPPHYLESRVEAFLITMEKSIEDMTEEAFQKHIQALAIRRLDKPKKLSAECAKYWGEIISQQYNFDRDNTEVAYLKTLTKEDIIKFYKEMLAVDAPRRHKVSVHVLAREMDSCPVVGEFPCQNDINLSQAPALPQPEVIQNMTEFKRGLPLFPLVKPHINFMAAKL

[5] = target: DNA dC->dU-editing enzyme APOBEC-3G (Homo sapiens, UniProt Q9HC16); assay: Dose Response confirmation of small molecule APOBEC3G DNA Deaminase Inhibitors via a fluorescence-based single-stranded DNA deaminase assay. [Related pubchem assays (depositor defined):AID493012, AID493028]; format: functional
[6] = target: T5, Mannose-6-phosphate isomerase (Homo sapiens, UniProt P34949); assay: phosphomannose isomerase inhibition – biochemical, fluorescence intensity, confirmation (AID 1535)
T5 sequence (P34949 whole entry): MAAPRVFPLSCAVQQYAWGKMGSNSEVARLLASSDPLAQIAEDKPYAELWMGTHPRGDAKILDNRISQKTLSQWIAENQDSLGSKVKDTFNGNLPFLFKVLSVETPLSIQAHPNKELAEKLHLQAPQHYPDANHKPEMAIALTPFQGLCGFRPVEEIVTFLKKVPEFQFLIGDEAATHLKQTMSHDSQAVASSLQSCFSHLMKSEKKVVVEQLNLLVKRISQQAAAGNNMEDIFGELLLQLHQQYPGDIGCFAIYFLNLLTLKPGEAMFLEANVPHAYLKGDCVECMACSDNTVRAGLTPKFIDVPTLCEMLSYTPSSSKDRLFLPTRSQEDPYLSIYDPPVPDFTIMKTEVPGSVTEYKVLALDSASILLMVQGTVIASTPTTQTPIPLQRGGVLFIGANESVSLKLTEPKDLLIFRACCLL

[7] = target: Phosphoethanolamine/phosphocholine phosphatase (Homo sapiens, UniProt Q8TCT1); assay: SAR assay for compounds that inhibit PHOSPHO1. [Related pubchem assays (depositor defined):AID1545, AID1565, AID1574]
Sequence of Phosphoethanolamine/phosphocholine phosphatase (Q8TCT1 whole entry): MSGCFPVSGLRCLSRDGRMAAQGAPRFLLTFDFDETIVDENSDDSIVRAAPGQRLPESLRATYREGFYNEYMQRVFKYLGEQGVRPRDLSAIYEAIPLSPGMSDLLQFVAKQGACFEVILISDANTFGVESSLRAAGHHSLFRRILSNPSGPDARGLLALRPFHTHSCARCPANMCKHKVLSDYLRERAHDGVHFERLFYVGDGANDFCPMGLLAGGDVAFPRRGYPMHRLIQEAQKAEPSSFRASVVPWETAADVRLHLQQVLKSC

Sequence of DNA dC->dU-editing enzyme APOBEC-3A (P31941 whole entry): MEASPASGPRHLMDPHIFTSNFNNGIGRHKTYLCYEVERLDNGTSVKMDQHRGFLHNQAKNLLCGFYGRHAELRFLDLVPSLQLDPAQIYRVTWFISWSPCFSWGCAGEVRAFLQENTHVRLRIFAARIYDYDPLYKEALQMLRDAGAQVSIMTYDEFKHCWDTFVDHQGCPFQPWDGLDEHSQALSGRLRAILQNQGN
Sequence of DNA dC->dU-editing enzyme APOBEC-3G (Q9HC16 whole entry): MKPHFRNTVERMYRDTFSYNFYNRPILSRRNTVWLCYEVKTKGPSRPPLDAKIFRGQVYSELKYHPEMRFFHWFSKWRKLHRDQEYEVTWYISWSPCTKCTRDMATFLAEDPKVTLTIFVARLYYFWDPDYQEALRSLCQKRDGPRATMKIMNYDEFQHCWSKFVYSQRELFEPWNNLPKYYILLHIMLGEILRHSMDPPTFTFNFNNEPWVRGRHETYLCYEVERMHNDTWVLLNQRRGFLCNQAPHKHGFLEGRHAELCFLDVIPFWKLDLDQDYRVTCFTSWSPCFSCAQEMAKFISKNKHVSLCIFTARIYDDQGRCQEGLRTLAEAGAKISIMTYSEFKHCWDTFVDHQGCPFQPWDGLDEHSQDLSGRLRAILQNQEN

In the case of `O=C(O)c1cccc(-n2sc3ccccc3c2=O)c1`, the IC50 [1] is reported as > 100 µM (inactive), the IC50 [2] is reported as > 100 µM (inactive) and the IC50 (Phosphomannomutase 2) is reported as 52.5 µM (active). For the same compound, the IC50 [3] was 30.1 µM (active), the IC50 [4] was 36.7 µM (not active) and the IC50 (Insulin-degrading enzyme) was 2.38 µM (active). For the same compound, the IC50 [5] was 4.85 µM (active), the IC50 [6] was 3.29 µM (active) and the IC50 [7] was 1.14 µM (inactive).
